Assay in all cases: MIC, standard broth dilution method in microtitre
Type in all cases: cell-based
(In broth dilution the organism is exposed to a series of concentrations in liquid medium.)

One experiment relates to Haemophylus influenzae. How it is done: (§1) Using a standard broth dilution method in microtitre, compounds were tested for antibacterial activity.
(§2) The MIC (μg/ml) of test compounds against various organisms was determined including: Staphylococcus aureus, Streptococcus pneumoniae, Streptococcus pyogenes, Enterococcus faecalis, Haemophylus influenzae, Moraxella catarrhalis.

A further experiment relates to Moraxella catarrhalis. The protocol: as §1, §2
Experiment [1] deals with sensitive Staphylococcus aureus. The protocol:
as §1, §2

For the next experiment, the system named is Enterococcus faecalis. The protocol: as §1, §2

The compound “4″(S)—N-(3-{2-[2-(3-Carboxy-7-chloro-1-cyclopropyl-4-oxo-1,4-dihydro-quinolin-6-ylamino)-ethoxy]-ethoxy}-propionyl}-azithromycin [Example 3]” returned an MIC in the experiment on Haemophylus influenzae of no more than 0.125 µg/mL.
As to `CC[C@H]1OC(=O)[C@H](C)[C@@H](O[C@H]2C[C@@](C)(OC)[C@H](NC(=O)CCOCCOCCCc3ccc4c(c3)c(=O)c(C(=O)O)cn4CC)[C@H](C)O2)[C@H](C)[C@@H](O[C@@H]2O[C@H](C)C[C@H](N(C)C)[C@H]2O)[C@](C)(O)C[C@@H](C)CN(C)[C@H](C)[C@@H](O)[C@]1(C)O` (single isomer, unassigned) [Example 4], in the experiment on Moraxella catarrhalis, the MIC was no more than 2 µg/mL.
With `CC[C@H]1OC(=O)[C@H](C)[C@@H](O[C@H]2C[C@@](C)(OC)[C@H](NC(=O)CCOCCOCCCc3ccc4c(c3)c(=O)c(C(=O)O)cn4CCOC)[C@H](C)O2)[C@H](C)[C@@H](O[C@@H]2O[C@H](C)C[C@H](N(C)C)[C@H]2O)[C@](C)(O)C[C@@H](C)CN(C)[C@H](C)[C@@H](O)[C@]1(C)O` (single isomer, unassigned) [Example 6], the figures for the MIC (against Moraxella catarrhalis; in experiment [1]) were no more than 2 µg/mL and no more than 0.5 µg/mL, respectively.
With `CC[C@H]1OC(=O)[C@H](C)[C@@H](O[C@H]2C[C@@](C)(OC)[C@@H](NC(=O)CCOCCOCCCc3ccc4c(c3)c(=O)c(C(=O)O)cn4CC)[C@H](C)O2)[C@H](C)[C@@H](O[C@@H]2O[C@H](C)C[C@H](N(C)C)[C@H]2O)[C@](C)(O)C[C@@H](C)CN(C)[C@H](C)[C@@H](O)[C@]1(C)O` (single isomer, unassigned) [Example 7], the values for the MIC (in the experiment with Enterococcus faecalis; against Moraxella catarrhalis; in experiment [1]) were no more than 0.125 µg/mL, no more than 2 µg/mL and no more than 0.5 µg/mL, respectively.
The matching figures for `CC[C@H]1OC(=O)[C@H](C)[C@@H](O[C@H]2C[C@@](C)(OC)[C@@H](NC(=O)CCOCCOCCCc3ccc4c(c3)c(=O)c(C(=O)O)cn4C3CC3)[C@H](C)O2)[C@H](C)[C@@H](O[C@@H]2O[C@H](C)C[C@H](N(C)C)[C@H]2O)[C@](C)(O)C[C@@H](C)CN(C)[C@H](C)[C@@H](O)[C@]1(C)O` (single isomer, unassigned) [Example 8]: no more than 0.125 µg/mL, no more than 2 µg/mL and no more than 0.5 µg/mL.
With `CC[C@H]1OC(=O)[C@H](C)[C@@H](O[C@H]2C[C@@](C)(OC)[C@H](NC(=O)CCOCCOCCCc3ccc4c(c3)c(=O)c(C(=O)O)cn4C3CC3)[C@H](C)O2)[C@H](C)[C@@H](O[C@@H]2O[C@H](C)C[C@H](N(C)C)[C@H]2O)[C@](C)(O)C[C@@H](C)CN(C)[C@H](C)[C@@H](O)[C@]1(C)O` (single isomer, unassigned) [Example 9], the MIC against Moraxella catarrhalis is no more than 2 µg/mL; in experiment [1], no more than 0.5 µg/mL.

(Values after patent publication US20080312167A1, “4'' Amino Linked Macrolides Useful for the Treatment of Microbial Infections” (priority 2005, published 2008).)
